Literature values in patent US20260374745A1, “METHODS FOR PRODUCING AROMATIC THIAZINES OR SELENAZINES” (Universität Heidelberg, priority 2023, published 2026).

Legend:
[1] = system: 3-deoxy-d-manno-octulosonic acid 8-phosphate (KDO 8-P) synthase; conditions: role: inhibitor; Birck et al., J. Am. Chem. Soc. 2000, 122, 9334-9335
HIV = conditions: Mizuhara et al., Org. Biomol. Chem. 2012, 10, 6792-6802

Q: Which “3-deoxy-d-manno-octulosonic acid 8-phosphate (KDO 8-P) synthase inhibitor” value [1] does the source give for `N=C1Sc2ccccc2C2=NCCCN12` [PD 404182] here?
A: inhibitor

Q: What about the anti-HIV activities (HIV) of the same compound?
A: potent
